Where two headings read alike, the source gives them in different places.

For experiment [1], the system named is DU145 Prostate Cancer Cells. Description: MTT cytotoxicity assay, DU145 prostate cancer cells. The experiment is classed as cell-based, human. The conditions noted are these: read-out: CD50, vitamin alone. How it is done: (§1) The effect of the new Mg-containing formulation, which combined MgVC2+VK3, on proliferation and survival of cancer cells was evaluated was then evaluated using the MTT assay, a […] assay that measures the number of viable cells in a cell sample. 3-[4,5-dimethylthiazol-2-yl]-2,5-diphenyltetrazolium bromide (MTT) is a chromogen that is converted to a measurable colored product by viable cells. Therefore, the amount of color measured is proportional to the number of viable cells. This assay has been used widely to assess the cytotoxicity and selectivity of anti-cancer drugs because MTT is suitable for rapid toxicity characterization of new drug candidates and formulations. One way of assigning a cytotoxic activity to an agent is by converting the raw date to a CD50 value, which represent the amount (dose) of the agent needed to achieve 50% of the maximal cytotoxic activity. A lower CD50 indicates a greater cytotoxic activity (as a lower amount of the agent is needed to achieve a fixed level of cytotoxicity). Two agents can be compared by examining the fold-increase or decrease in their CD50 values.
(§2) To evaluate the antitumor activity at a MgVC2:VK3 ratio of […], MgVC was combined with VK3 at a MgVC2:VK3 ratio of 100:1 (which is effectively a VC:VK3 ratio of 200:1). The NaVC:K3 formulation was prepared at a ratio of 200:1.
The antitumor activity of the two formulations against a human androgen-independent prostate cancer cell line DU145 was evaluated in the MTT assay.
A general note: Tetrazolium assays rely on reduction of a dye to a coloured formazan, in cell work by metabolically active cells.

The next experiment deals with HS68 Fibroblasts. Description: MTT cytotoxicity assay, HS68 fibroblasts. The experiment is classed as cell-based. Particulars: read-out: CD50, vitamin alone. The method, then: as §1, §2
This indicates a selectivity for tumor vs. “normal” cells.

The next experiment deals with DNase I. The conditions noted are these: tumor cells; cited from earlier work.
The mark [2] stands for this setting: Homo sapiens, DU-145, 24 h, 1 day.
The mark [3] stands for this setting: Homo sapiens, DU-145, 48 h, 2 days.
Setting [4] is: Homo sapiens, DU-145, 72 h, 3 days.

In the case of `O=C1O[C@H]([C@@H](O)CO)C(O)=C1O` [NaVC, sodium ascorbate], the IC50 was 3070 µM in experiment [1] (setting [2]); 1480 µM in experiment [1] (setting [3]); 994 µM in experiment [1] (setting [4]); 1470 µM in the experiment with HS68 Fibroblasts (Homo sapiens, 24 h, 1 day); 1240 µM in the experiment with HS68 Fibroblasts (Homo sapiens, 48 h, 2 days); 1180 µM in the experiment with HS68 Fibroblasts (Homo sapiens, 72 h, 3 days).

For the compound `CC1=CC(=O)c2ccccc2C1=O` [VK3, 2-methyl-1,4-naphthoquinone], the IC50 in experiment [1] (setting [2]) came out at 37.5 µM; in experiment [1] (setting [3]) it was 37.5 µM; in experiment [1] (setting [4]), 37.5 µM; with HS68 Fibroblasts (Homo sapiens, 24 h, 1 day), 18.7 µM; with HS68 Fibroblasts (Homo sapiens, 48 h, 2 days), 19 µM; in the experiment with HS68 Fibroblasts (Homo sapiens, 72 h, 3 days) it was 18.7 µM. Further, the “time of exposure to re-expression of latent DNase I activity” value with DNase I is recorded as at most 15 min.

In the case of magnesium ascorbate [MgVC2], the IC50 amounted to 2510 µM in experiment [1] (1 day); 1150 µM in experiment [1] (2 days); 432 µM in experiment [1] (3 days); 1660 µM in the experiment on HS68 Fibroblasts (1 day); 1750 µM in the experiment on HS68 Fibroblasts (2 days); 1500 µM in the experiment with HS68 Fibroblasts (3 days).

The values are drawn from patent US8507555B2, “Non-toxic anti-cancer drug combining ascorbate, magnesium and a naphthoquinone” (Summa Health System, priority 2006, dated 2013).
